Measured values as given in paper PMC10023787, “Trio-pharmacophore DNA-encoded chemical library for simultaneous selection of fragments and linkers” (Nature Communications, 2023).
Values joined by “and” are separate entries in the source; they are usually repeats but may differ in a detail not shown here. Equal entries are not always repeated. Where two headings read alike, the source gives them in different places. Blank lines part the entries; values can stand above or below the compound they belong to.

What was measured:
[1] = target: T1, MMP-2 (Homo sapiens, UniProt P08253); experiment: MMP-2 inhibition assay (fluorogenic peptide substrate); format: biochemical; conditions: for IC50: n.d: not detected
T1 construct: purchased Sino Biological 10082-HNAH
T1 sequence (P08253 110-660): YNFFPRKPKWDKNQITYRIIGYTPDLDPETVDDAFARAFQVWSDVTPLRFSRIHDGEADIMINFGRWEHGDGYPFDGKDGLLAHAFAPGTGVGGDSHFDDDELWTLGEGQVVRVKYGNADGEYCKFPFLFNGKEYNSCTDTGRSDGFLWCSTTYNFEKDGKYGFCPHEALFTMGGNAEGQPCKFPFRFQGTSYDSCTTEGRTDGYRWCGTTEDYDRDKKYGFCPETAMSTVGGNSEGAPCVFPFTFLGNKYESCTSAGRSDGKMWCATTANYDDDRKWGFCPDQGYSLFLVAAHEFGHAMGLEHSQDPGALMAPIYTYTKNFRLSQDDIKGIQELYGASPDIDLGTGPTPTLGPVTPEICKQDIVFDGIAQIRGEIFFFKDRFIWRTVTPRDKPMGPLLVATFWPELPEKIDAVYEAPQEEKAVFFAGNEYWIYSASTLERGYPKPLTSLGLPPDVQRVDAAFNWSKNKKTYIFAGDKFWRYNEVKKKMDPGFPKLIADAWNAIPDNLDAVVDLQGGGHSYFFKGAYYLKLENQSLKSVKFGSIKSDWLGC
Outline: (§1)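 Human proMMP-2 and proMMP-9 were activated with 1 mM APMA (37 °C, 2 h), then used at 6.5 nM (MMP-2) or 10 nM (MMP-9) in Tris/NaCl/CaCl2/Brij 35 buffer, pH 7.5. Enzyme was preincubated with compound 30 min at RT; 25 μM DNP-Pro-Leu-Gly-Met-Trp-Ser-Arg substrate was added and fluorescence (ex 280/em 360 nm) followed 30 min. IC50 from logistic fits of Vmax.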

[2] = target: T2, MMP-9 (Homo sapiens, UniProt P14780); experiment: MMP-9 inhibition assay (fluorogenic peptide substrate); format: biochemical; design: remaining enzyme activity (% of control): scale not given here
T2 construct: purchased Sino Biological 10327-HNAH
T2 sequence (P14780 107-707 limits assumed): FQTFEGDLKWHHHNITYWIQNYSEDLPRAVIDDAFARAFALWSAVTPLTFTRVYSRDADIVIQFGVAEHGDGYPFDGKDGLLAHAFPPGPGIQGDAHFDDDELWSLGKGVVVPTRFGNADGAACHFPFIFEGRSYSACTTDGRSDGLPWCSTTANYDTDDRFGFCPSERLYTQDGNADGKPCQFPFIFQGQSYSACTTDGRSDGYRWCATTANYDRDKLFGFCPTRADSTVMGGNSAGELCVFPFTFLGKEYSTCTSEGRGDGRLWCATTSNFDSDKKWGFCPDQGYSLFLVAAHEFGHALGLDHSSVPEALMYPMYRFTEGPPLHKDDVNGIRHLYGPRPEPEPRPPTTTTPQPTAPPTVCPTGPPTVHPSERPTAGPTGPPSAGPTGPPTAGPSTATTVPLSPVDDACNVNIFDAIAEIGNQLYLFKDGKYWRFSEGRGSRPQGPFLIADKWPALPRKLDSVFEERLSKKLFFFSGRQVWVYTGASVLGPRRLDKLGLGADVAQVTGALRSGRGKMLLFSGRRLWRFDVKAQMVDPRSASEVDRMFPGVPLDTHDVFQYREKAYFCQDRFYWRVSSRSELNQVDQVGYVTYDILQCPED
Outline: as §1

[3] = mean ± SE, Fig. 5d unit inferred, µM, read-out: IC50
[4] = mean ± SE; n.d: not detected; Fig. 5e prints no unit, µM; read-out: IC50

remaining activity (%) ([1]; MMP-2, concentration 0.13 µM): 97.62
remaining activity (%) ([1]; MMP-2, concentration 0.50 µM): 96.92
remaining activity (%) ([1]; MMP-2, concentration 2.01 µM): 91.66
remaining activity (%) ([1]; MMP-2, concentration 8.03 µM): 85.01
remaining activity (%) ([1]; MMP-2, concentration 128.50 µM): 28.27
remaining activity (%) ([1]; MMP-2, concentration 514.00 µM): 12.65
IC50 [1, 3]: 62.3 ± 14 µM
remaining enzyme activity (% of control) ([2]; MMP-9, concentration 0.12 µM): 93.35
remaining enzyme activity (% of control) ([2]; MMP-9, concentration 0.49 µM): 105.08
remaining enzyme activity (% of control) ([2]; MMP-9, concentration 1.95 µM): 88.98
remaining enzyme activity (% of control) ([2]; MMP-9, concentration 7.81 µM): 94.00
remaining enzyme activity (% of control) ([2]; MMP-9, concentration 31.25 µM): 85.67
remaining enzyme activity (% of control) ([2]; MMP-9, concentration 125.00 µM): 51.95
remaining enzyme activity (% of control) ([2]; MMP-9, concentration 500.00 µM): 12.28
IC50 [2, 4]: 131 ± 24.2 µM
Compound: Cn1c(O)nc2cc(C(=O)NCCCCC=CC(=O)CC(=O)NCCNC(=O)Cn3cnc4c(oc5ccccc54)c3=O)cnc21 [182+826 Linker 12]

Compound: Cc1cc(=O)[nH]c(-n2nc(C)c(CCC(=O)NCCNC(=O)CC(=O)/C=C/CCCCNC(=O)c3cncc(O)c3)c2C)n1 [693+828 Linker 12]
remaining activity at 0.00831 µM ([1]; MMP-2, concentration 0.00831 µM, read-out: Mean (MMP-2 dose-response, Supplementary fig 15)): 95.7%
remaining activity at 0.04 µM ([1]; MMP-2, concentration 0.04 µM, read-out: Mean (MMP-2 dose-response, Supplementary fig 15)): 92.8%
remaining activity at 0.21 µM ([1]; MMP-2, concentration 0.21 µM, read-out: Mean (MMP-2 dose-response, Supplementary fig 15)): 86.2%
remaining activity at 1.04 µM ([1]; MMP-2, concentration 1.04 µM, read-out: Mean (MMP-2 dose-response, Supplementary fig 15)): 77.4%
remaining activity at 5.19 µM ([1]; MMP-2, concentration 5.19 µM, read-out: Mean (MMP-2 dose-response, Supplementary fig 15)): 60.2%
remaining activity at 25.96 µM ([1]; MMP-2, concentration 25.96 µM, read-out: Mean (MMP-2 dose-response, Supplementary fig 15)): 25.3%
remaining activity at 129.8 µM ([1]; MMP-2, concentration 129.80 µM, read-out: Mean (MMP-2 dose-response, Supplementary fig 15)): 0%
remaining activity at 649 µM ([1]; MMP-2, concentration 649.00 µM, read-out: Mean (MMP-2 dose-response, Supplementary fig 15)): 0%
IC50 [1, 3]: 10 µM
remaining activity at 0.04 µM ([2]; MMP-9; concentration 0.04 µM; read-out: Mean (MMP-9 dose-response, Supplementary fig 15)): 95.5%
remaining activity at 0.21 µM ([2]; MMP-9; concentration 0.21 µM; read-out: Mean (MMP-9 dose-response, Supplementary fig 15)): 89%
remaining activity at 1.04 µM ([2]; MMP-9; concentration 1.04 µM; read-out: Mean (MMP-9 dose-response, Supplementary fig 15)): 89.5%
remaining activity at 5.19 µM ([2]; MMP-9; concentration 5.19 µM; read-out: Mean (MMP-9 dose-response, Supplementary fig 15)): 71.7%
remaining activity at 25.96 µM ([2]; MMP-9; concentration 25.96 µM; read-out: Mean (MMP-9 dose-response, Supplementary fig 15)): 32.6%
remaining activity at 129.8 µM ([2]; MMP-9; concentration 129.80 µM; read-out: Mean (MMP-9 dose-response, Supplementary fig 15)): 0%
remaining activity at 649 µM ([2]; MMP-9; concentration 649.00 µM; read-out: Mean (MMP-9 dose-response, Supplementary fig 15)): 0%
IC50 [2, 4]: 14.8 µM and 15 µM

remaining activity (%) ([1]; MMP-2, concentration 0.0156 µM): 88.17
remaining activity (%) ([1]; MMP-2, concentration 0.08 µM): 88.67
remaining activity (%) ([1]; MMP-2, concentration 0.39 µM): 96.33
remaining activity (%) ([1]; MMP-2, concentration 1.95 µM): 93.57
remaining activity (%) ([1]; MMP-2, concentration 9.75 µM): 94.74
remaining activity (%) ([1]; MMP-2, concentration 48.76 µM): 85.76
remaining activity (%) ([1]; MMP-2, concentration 243.80 µM): 33.24
remaining activity (%) ([1]; MMP-2, concentration 1219.00 µM): 9.64
IC50 [1, 3]: 186 ± 15.7 µM
remaining enzyme activity (% of control) ([2]; MMP-9; concentration 0.08 µM): 97.89
remaining enzyme activity (% of control) ([2]; MMP-9; concentration 0.39 µM): 99.26
remaining enzyme activity (% of control) ([2]; MMP-9; concentration 1.95 µM): 97.73
remaining enzyme activity (% of control) ([2]; MMP-9; concentration 9.75 µM): 98.89
remaining enzyme activity (% of control) ([2]; MMP-9; concentration 48.76 µM): 84.90
remaining enzyme activity (% of control) ([2]; MMP-9; concentration 243.80 µM): 42.77
remaining enzyme activity (% of control) ([2]; MMP-9; concentration 1219.00 µM): 10.96
IC50 [2, 4]: 201 ± 21.3 µM
Compound: Cc1cc(=O)[nH]c(-n2nc(C)c(CCC(=O)NCCOCCOCCNC(=O)c3cncc(O)c3)c2C)n1 [693+828 Linker 10]

IC50 ([1]; Figure 5d, fragment combination joined by linker, read-out: MMP2 IC50): 59.9 µM
IC50 ([2]; Figure 5d; fragment combination joined by linker; n.d: not detected; read-out: MMP9 IC50): 80.5 µM
Compound: Cc1cc(=O)[nH]c(-n2nc(C)c(CCC(=O)NCCNC(=O)CSCCNC(=O)c3cncc(O)c3)c2C)n1 [693_828 24]
